Reference: patent publication US20250213701A1, “MEDICAMENT FOR TREATING HUMAN TUMOR BASED ON ERF3A-TARGETING PROTEOLYSIS MECHANISM” (SUZHOU DEGEN BIO-MEDICAL CO., LTD., priority 2022, published 2025)

Legend:
Assay type in all cases: cell-based, human
VCaP cells = assay: Anti-proliferative toxicity against prostate cancer cell line Vcap (CCK8); conditions: 3 days; for IC50: Homo sapiens, 72 h, CCK8
How it was run: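 VCaP cells (DMEM, 10% FBS) seeded 20000 cells/well, cultured 72 h, then exposed in triplicate to compound at final well concentrations of 0.00001–0.16 μM for 3 days at 37 °C, 5% CO2. Viability by CCK8, 1–4 h at 37 °C, absorbance at 450 nm.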

22Rv1 cells = assay: Anti-proliferative toxicity against prostate cancer cell line 22Rv1 (CCK8); conditions: 3 days; for IC50: Homo sapiens, 72 h, CCK8
How it was run: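 22Rv1 cells pre-cultured for 48 h, then exposed to compounds at 0.00001-1.0 μM final, in triplicate, for 3 days. Viability read by CCK8 absorbance at 450 nm after 1-4 h at 37 °C.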

PC-3 cells = assay: Anti-proliferative toxicity against prostate cancer cell line PC-3 (CCK8); conditions: Homo sapiens, 72 h, 3 days
How it was run: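 PC-3 cells (4000/well, pre-cultured 24 h) exposed in triplicate to compound at final 0.00001-1.0 μM for 3 days at 37 °C, 5% CO2. Viability read by CCK8, 1-4 h at 37 °C, absorbance at 450 nm.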

| SMILES | IC50 (VCaP cells) | IC50 (22Rv1 cells) | IC50 (PC-3 cells) | also measured |
| --- | --- | --- | --- | --- |
| C[C@]12C=CC(=O)N[C@@H]1CC[C@@H]1[C@@H]2CC[C@]2(C)[C@@H](C(=O)Nc3cccc(N4CCC(CNc5cccc6c5C(=O)N(C5CCC(=O)NC5=O)C6=O)CC4)c3)CC[C@@H]12 (stereo partly drawn) [C48, N-(3-(4-(((4-(2-(3-(2,6-dioxopiperidine))-isoindole-1,3-dione))amino)methyl)piperidine)phenyl)-3-oxo-4-aza-5α-androst-1-ene-17β-carboxamide] | > 1000 nM | > 1000 nM | > 1000 nM | – |
| CC(C)(C)C(=O)OCN1C(=O)CCC(N2C(=O)c3cccc(NCCCOc4cccc(NC(=O)[C@H]5CC[C@H]6[C@@H]7CC[C@H]8NC(=O)C=C[C@]8(C)[C@H]7CC[C@]56C)c4)c3C2=O)C1=O (stereo partly drawn) [C49, N-(3-((3-((4-(2-(3-(1-pivaloyloxymethyl-2,6-dioxopiperidine))-isoindole-1,3-dione))amino)propyl)oxy)phenyl)-3-oxo-4-aza-5α-androst-1-ene-17β-carboxamide] | 0.1 to 10 nM | 0.1 to 10 nM | > 1000 nM | – |
| C[C@]12C=CC(=O)N[C@@H]1CC[C@@H]1[C@@H]2CC[C@]2(C)[C@@H](C(=O)Nc3cccc(NCCCNc4cccc5c4C(=O)N(C4CCC(=O)NC4=O)C5=O)c3)CC[C@@H]12 (stereo partly drawn) [C50, N-(3-((3-((4-(2-(3-(2,6-dioxopiperidine))-isoindole-1,3-dione))amino)propyl)amino)phenyl)-3-oxo-4-aza-5α-androst-1-ene-17β-carboxamide] | 0.1 to 10 nM | 0.1 to 10 nM | 10 to 1000 nM | Anti-proliferative toxicity data in VCaP cells (VCaP cells; 0.00005 μM): 1.2%; Anti-proliferative toxicity data in VCaP cells (VCaP cells; 0.00010 μM): 22.8%; Anti-proliferative toxicity data in VCaP cells (VCaP cells; 0.00030 μM): 72.3%; Anti-proliferative toxicity data in VCaP cells (VCaP cells; 0.00100 μM): 86.6%; Anti-proliferative toxicity data in VCaP cells (VCaP cells; 0.00300 μM): 90.5%; Anti-proliferative toxicity data in VCaP cells (VCaP cells; 0.00600 μM): 90.7%; Anti-proliferative toxicity data in VCaP cells (VCaP cells; 0.03200 μM): 91.5%; Anti-proliferative toxicity data in VCaP cells (VCaP cells; 0.16000 μM): 91.7%; Anti-proliferative toxicity data in 22Rv1 cells (22Rv1 cells; 0.00006 μM): 6.6%; Anti-proliferative toxicity data in 22Rv1 cells (22Rv1 cells; 0.00032 μM): 45.2%; Anti-proliferative toxicity data in 22Rv1 cells (22Rv1 cells; 0.00160 μM): 78.4%; Anti-proliferative toxicity data in 22Rv1 cells (22Rv1 cells; 0.00800 μM): 80.7%; Anti-proliferative toxicity data in 22Rv1 cells (22Rv1 cells; 0.04000 μM): 75.0%; Anti-proliferative toxicity data in 22Rv1 cells (22Rv1 cells; 0.20000 μM): 80.6%; Anti-proliferative toxicity data in 22Rv1 cells (22Rv1 cells; 1.00000 μM): 81.5% |
| C[C@]12C=CC(=O)N[C@@H]1CC[C@@H]1[C@@H]2CC[C@]2(C)[C@@H](C(=O)Nc3ccc(Cl)c(OCCCNc4cccc5c4C(=O)N(C4CCC(=O)NC4=O)C5=O)c3)CC[C@@H]12 (stereo partly drawn) [C51, N-(3-((3-((4-(2-(3-(2,6-dioxopiperidine))-isoindole-1,3-dione))amino)propyl)oxy)-4-chloro-phenyl)-3-oxo-4-aza-5α-androst-1-ene-17β-carboxamide] | > 1000 nM | > 1000 nM | > 1000 nM | – |
| Cc1ccc(NC(=O)[C@H]2CC[C@H]3[C@@H]4CC[C@H]5NC(=O)C=C[C@]5(C)[C@H]4CC[C@]23C)cc1OCCCNc1cccc2c1C(=O)N(C1CCC(=O)NC1=O)C2=O (stereo partly drawn) [C52, N-(3-((3-((4-(2-(3-(2,6-dioxopiperidine))-isoindole-1,3-dione))amino)propyl)oxy)-4-methyl-phenyl)-3-oxo-4-aza-5α-androst-1-ene-17β-carboxamide] | > 1000 nM | > 1000 nM | > 1000 nM | – |
| C[C@]12C=CC(=O)N[C@@H]1CC[C@@H]1[C@@H]2CC[C@]2(C)[C@@H](C(=O)Nc3cc(OCCCNc4cccc5c4C(=O)N(C4CCC(=O)NC4=O)C5=O)ccn3)CC[C@@H]12 (stereo partly drawn) [C53, N-(2-(4-((3-((4-(2-(3-(2,6-dioxopiperidine))-isoindole-1,3-dione))amino)propyl)oxy)-pyridine))-3-oxo-4-aza-5α-androst-1-ene-17β-carboxamide] | > 1000 nM | > 1000 nM | > 1000 nM | – |
| C[C@]12C=CC(=O)N[C@@H]1CC[C@@H]1[C@@H]2CC[C@]2(C)[C@@H](C(=O)Nc3cccc(NC4CCC(Nc5cccc6c5C(=O)N(C5CCC(=O)NC5=O)C6=O)CC4)c3)CC[C@@H]12 (stereo partly drawn) [C54, N-(3-((4-((4-(2-(3-(2,6-dioxopiperidine))-isoindole-1,3-dione))amino)cyclohexyl)amino)phenyl)-3-oxo-4-aza-5α-androst-1-ene-17β-carboxamide] | > 1000 nM | > 1000 nM | > 1000 nM | – |
| C[C@]12C=CC(=O)N[C@@H]1CC[C@@H]1[C@@H]2CC[C@]2(C)[C@@H](C(=O)Nc3cc(Cl)cc(OCCCNc4cccc5c4C(=O)N(C4CCC(=O)NC4=O)C5=O)c3)CC[C@@H]12 (stereo partly drawn) [C55, N-(3-((3-((4-(2-(3-(2,6-dioxopiperidine))-isoindole-1,3-dione))amino)propyl)oxy)-5-chloro-phenyl)-3-oxo-4-aza-5α-androst-1-ene-17β-carboxamide] | 10 to 1000 nM | 10 to 1000 nM | > 1000 nM | – |
| C[C@]12C=CC(=O)N[C@@H]1CC[C@@H]1[C@@H]2CC[C@]2(C)[C@@H](C(=O)Nc3cccc(NCCNc4cccc5c4C(=O)N(C4CCC(=O)NC4=O)C5=O)c3)CC[C@@H]12 (stereo partly drawn) [C56, N-(3-((2-((4-(2-(3-(2,6-dioxopiperidine))-isoindole-1,3-dione))amino)ethyl)amino)phenyl)-3-oxo-4-aza-5α-androst-1-ene-17β-carboxamide] | > 1000 nM | > 1000 nM | > 1000 nM | – |
| C[C@]12C=CC(=O)N[C@@H]1CC[C@@H]1[C@@H]2CC[C@]2(C)[C@@H](C(=O)Nc3cccc(OC4CCC(Nc5cccc6c5C(=O)N(C5CCC(=O)NC5=O)C6=O)C4)c3)CC[C@@H]12 (stereo partly drawn) [C57, N-(3-((3-((4-(2-(3-(2,6-dioxopiperidine))-isoindole-1,3-dione))amino)cyclopentyl)oxy)phenyl)-3-oxo-4-aza-5α-androst-1-ene-17β-carboxamide] | 10 to 1000 nM | 10 to 1000 nM | > 1000 nM | – |
| C[C@]12C=CC(=O)N[C@@H]1CC[C@@H]1[C@@H]2CC[C@]2(C)[C@@H](C(=O)Nc3cccc(NC4CCCC(Nc5cccc6c5C(=O)N(C5CCC(=O)NC5=O)C6=O)C4)c3)CC[C@@H]12 (stereo partly drawn) [C58, N-(3-(N—(N-(4-(2-(3-(2,6-dioxopiperidine))-isoindole-1,3-dione))cyclohexanediamine))phenyl)-3-oxo-4-aza-5α-androst-1-ene-17β-carboxamide] | 0.1 to 10 nM | 0.1 to 10 nM | 10 to 1000 nM | – |
| C[C@]12C=CC(=O)N[C@@H]1CC[C@@H]1[C@@H]2CC[C@]2(C)[C@@H](C(=O)Nc3cccc(N[C@H]4CCC[C@H](Nc5cccc6c5C(=O)N(C5CCC(=O)NC5=O)C6=O)C4)c3)CC[C@@H]12 (stereo partly drawn) [C60, N-(3-(N—(N-(4-(2-(3-(2,6-dioxopiperidine))-isoindole-1,3-dione))-1S,3S-cyclohexanediamine))phenyl)-3-oxo-4-aza-5α-androst-1-ene-17β-carboxamide] | 10 to 1000 nM | 10 to 1000 nM | > 1000 nM | – |
| C[C@]12C=CC(=O)N[C@@H]1CC[C@@H]1[C@@H]2CC[C@]2(C)[C@@H](C(=O)Nc3cccc(N[C@H]4CCC[C@@H](Nc5cccc6c5C(=O)N(C5CCC(=O)NC5=O)C6=O)C4)c3)CC[C@@H]12 (stereo partly drawn) [C61, N-(3-(N—(N-(4-(2-(3-(2,6-dioxopiperidine))-isoindole-1,3-dione))-1S,3R-cyclohexanediamine))phenyl)-3-oxo-4-aza-5α-androst-1-ene-17β-carboxamide] | > 1000 nM | > 1000 nM | > 1000 nM | – |
| C[C@]12C=CC(=O)N[C@@H]1CC[C@@H]1[C@@H]2CC[C@]2(C)[C@@H](C(=O)Nc3cccc(N[C@@H]4CCC[C@@H](Nc5cccc6c5CN(C5CCC(=O)NC5=O)C6=O)C4)c3)CC[C@@H]12 (stereo partly drawn) [C62, N-(3-(N—(N-(4-(2-(3-(2,6-dioxopiperidine))-1-oxo-2,3-dihydro-1H-isoindol))-1R,3R-cyclohexanediamine))phenyl)-3-oxo-4-aza-5α-androst-1-ene-17β-carboxamide] | 10 to 1000 nM | > 1000 nM | > 1000 nM | – |
| C[C@]12C=CC(=O)N[C@@H]1CC[C@@H]1[C@@H]2CC[C@]2(C)[C@@H](C(=O)Nc3cccc(N[C@@H]4CCC[C@@H](Nc5cccc6c5C(=O)N([C@@H]5CCC(=O)NC5=O)C6=O)C4)c3)CC[C@@H]12 [C64, N-(3-(N—(N-(4-(2-(3R-(2,6-dioxopiperidine))-isoindole-1,3-dione))-1R,3R-cyclohexanediamine))phenyl)-3-oxo-4-aza-5α-androst-1-ene-17β-carboxamide] | 0.1 to 10 nM | 0.1 to 10 nM | 0.1 to 10 nM | – |
| C[C@]12C=CC(=O)N[C@@H]1CC[C@@H]1[C@@H]2CC[C@]2(C)[C@@H](C(=O)Nc3cccc(N[C@@H]4CCC[C@@H](Nc5cccc6c5CN([C@H]5CCC(=O)NC5=O)C6=O)C4)c3)CC[C@@H]12 [C65, N-(3-(N—(N-(4-(2-(3S-(2,6-dioxopiperidine))-1-oxo-2,3-dihydro-1H-isoindol))-1R,3R-cyclohexanediamine))phenyl)-3-oxo-4-aza-5α-androst-1-ene-17β-carboxamide] | 10 to 1000 nM | 10 to 1000 nM | > 1000 nM | – |
